Tests used:
[1] = tested on: anesthetized dog; assay: Intact anesthetized dog preparation (in situ), cardiac contractility; format: in vivo; details: intravenous
Protocol: (§1) By way of examples, pharmacological test procedures are described below. • (1) An isolated and cross-circulated papillary muscle preparation of the dog An isolated and cross-circulated papillary muscle preparation of the dog was prepared according to the method of Endo and Hashimoto [see American J. Physiol., 218, 1459-1463, (1970) U. S. A.]. A test compound dissolved in a solvent was applied by proximal intraarterial injection and its effect on contractility of the papillary muscle was determined. The results are shown in Table 1. • (2) Isolated left atrium of the guinea pig Male guinea pigs weighing 200 - 300 g were stunned by a blow on the head and the hearts were quickly excised and placed in a Petri dish containing oxygenated Krebs-Hensleit solution. The left atrium was excised. A fine cotton suture was attached to the left atrial appendage. The tissue was mounted in a 30 ml organ bath filled with Krebs-Hensleit solution at 37°C and oxygenated with 95% 02 - 5% C02 mixture. The cotton thread was then attached to a force- displacement transducer connected to a polygraph. A silver wire electrode connected to a stimulator was placed at the bottom of the preparaticn. Resting tension applied was 0.5 g. The preparation was driven electrically by a stimulator at a rate of 120/min. with suprathreshold rectangular pulses of 1 msec duration. The preparation was left to equilibrate for 1 hour. The test compounds dissolved in vehicle were added to the organ bath and the response was recorded. The results are shown in Table 1. • (3) Intact anesthetized dog preparation Mongrel dogs of either sex weighing 8 - 13 kg were anesthetized with sodium pentobarbital (30 mg/kg i.v.). A tracheal cannula was inserted and artificial respiration was carried out by means of a Harvard respiration. The left femoral vein was cannulated for intravenous bolus injection of the test compounds. The chest was opened at the left 4th intercostal space, the heart was exposed, and a _Walton-Brodie type strain gauge was sutured to the wall of the right ventricle to measure myocadial contractile force. A polyethylene cannula connected to a transducer was introduced into the left ventricle through the ventricular wall and left ventricular pressure was measured. Peak positive rate of rise of left ventricular pressure (dP/dt max) was obtained by an electric differentiator. The test compounds were dissolved in appropriate vehicle and intravenously administered.

[2] = tested on: papillary muscle preparation of the dog; assay: Isolated and cross-circulated papillary muscle preparation of the dog (contractility); details: Canis lupus familiaris, read-out: Developed tension (% Increase); for activation at 0.03 mg: Dose 30 µg i.a.; for activation at 0.1 mg: Dose 100 µg i.a.
Protocol: as §1

[3] = tested on: left atrium of the guinea pig; assay: Isolated, electrically driven left atrium of the guinea pig (contractility)
Protocol: as §1

[4] = Acute toxicity, LD50 by the Litchfield-Wilcoxon method; details: in vivo
Protocol: The values for LD50 were determined by the Litchfield-Wilcoxon method [J. T. Litchfield and F. Wilcoxon, J. Pharmacol. exp. Therap., 96, 99 (1949)].

In the case of `CCNC(=S)Nc1ccc(C2=NNC(=O)CC2)cc1` [Example 4, 4,5-dihydro-6-(4-N-ethylthioureidophenyl)-3-(2H)-pyridazinone], the “Contractile force of right ventricle (% Increase)” value (“Contractile force … (% Increase)” for short) ([1]; Dose 0.3 mg/kg) is reported as 75.8 % Increase, the “dP/dt max. (% Increase)” value ([1]; Dose 0.3 mg/kg) is reported as 49.9 % Increase and the “Contractile force … (% Increase)” value ([1]; Dose 1 mg/kg) is reported as 116.2 % Increase. For the same molecule, the “dP/dt max. (% Increase)” value ([1]; Dose 1 mg/kg) was 79.5 % Increase, the activation at 0.03 mg [2] was 8.4% and the activation at 0.1 mg [2] was 11.5%. For the same molecule, the “Developed tension (% Increase)” value ([3]; Concentration 3 x 10^-5 g/ml) was 102 % Increase and the “Developed tension (% Increase)” value ([3]; Concentration 10^-5 g/ml) was 85.6 % Increase.

With `NC(=S)Nc1ccc(C2=NNC(=O)CC2)cc1` [Example 1, 4,5-dihydro-6-(4-thioureidophenyl)-3-(2H)-pyridazinone] the activation at 0.03 mg [2] was 9.5%, the activation at 0.1 mg [2] was 21.2% and the “Developed tension (% Increase)” value ([3]; Concentration 3 x 10^-5 g/ml) was 44.9 % Increase. The “Developed tension (% Increase)” value ([3]; Concentration 10^-5 g/ml) was 24.6 % Increase.

For `CNC(=S)Nc1ccc(C2=NNC(=O)CC2)cc1` [Example 2, 4,5-dihydro-6-(4-N-methylthioureidophenyl)-3-(2H)-pyridazinone], the “Contractile force … (% Increase)” value ([1]; Dose 0.03 mg/kg) was 65.1 % Increase, the “dP/dt max. (% Increase)” value ([1]; Dose 0.03 mg/kg) was 28.4 % Increase and the “Contractile force … (% Increase)” value ([1]; Dose 0.1 mg/kg) was 74.8 % Increase. The “dP/dt max. (% Increase)” value ([1]; Dose 0.1 mg/kg) was 95.4 % Increase, the activation at 0.01 mg ([2]; Dose 10 µg i.a.) was 8.8% and the activation at 0.03 mg [2] was 47.4%. The LD50 ([4]; iv) was over 100 mg/kg, the LD50 ([4]; po) was over 2200 mg/kg and the “Developed tension (% Increase)” value ([3]; Concentration 3 x 10^-6 g/ml) was 32.1 % Increase. For the same molecule, the “Developed tension (% Increase)” value ([3]; Concentration 10^-6 g/ml) was 28.9 % Increase.

With `CNC(=S)Nc1ccc(-c2ccc(=O)[nH]n2)cc1` [Example 3, 6-(4-N-methylthioureidophenyl)-3-(2H)-pyridazinone] the activation at 0.1 mg [2] was 8.1%, the activation at 0.3 mg ([2]; Dose 300 µg i.a.) was 15.9% and the “Developed tension (% Increase)” value ([3]; Concentration 3 x 10^-5 g/ml) was 34.0 % Increase. For the same molecule, the “Developed tension (% Increase)” value ([3]; Concentration 10^-5 g/ml) was 28.3 % Increase.

Source: patent publication EP0085985A1, “Pyridazinone derivatives, pharmaceutically acceptable salts thereof and pharmaceutical compositions comprising said compounds” (MITSUBISHI KASEI CORPORATION, priority 1982, dated 1983)
